Consider seven compounds from US10888500B2, “Particle size stabilization process” (INKE, S.A., priority 2016, dated 2021).

The conditions of series [1]: between pH 1 and 14; cited from earlier work.
The conditions of series [2]: for D50 determined by LDS after curing / D90 determined by LDS after curing: after curing at 130° C., storage at 25° C. for (at least) 1 month. As to the method: Laser Diffraction Spectrometry (LDS) was used to determine the Particle Size Distribution (PSD) and the determination of the presence of aggregates.
Particle Size Distribution ([…]).
The particle size distribution of sample was measured by using a Helos particle size analyser using a R1 lense with an Aspiros feeder using a dispersing dry process on 50 mg of glycopyrronium salt product.
(§1) Determination of Presence of Aggregates (MALVERN).
The presence of aggregates in a sample was determined by using a Malvern Mastersizer 2000 instrument. For example: 100 mg of glycopyrronium salt were mixed with 5 ml of a previously prepared saturated solution of glycopyrronium salt in n-heptane containing 0.2 wt. % of Span-20. Ultrasonic treatment of the samples was performed for 2 minutes.

Series [3] is described as follows: Amorphous content by Dynamic Vapor Sorption Analysis (DVS), water uptake method. As to conditions: after the curing step. Format: physicochemical. As to the method:
Dynamic Vapor Sorption Analysis (DVS):
The experiments were performed in a Mettler Toledo TGA/DSC 1 LF instrument equipped with a LF SDTA FRS2 sensor and coupled with a Modular Humidity Generator MHG 32. The samples were weighted into 150 μL platinum crucibles. Data collection and evaluation was done with STARe software. A water uptake method was used to determine the amorphous content. In this method, the relative mass difference at a specific relative humidity (20%) prior to and post humidity-induced crystallization was compared. Assuming no solvate or hydrate formation, the difference in uptake between partially amorphous and recrystallized material is directly proportional to the initial amount of amorphous material in the sample. A purely amorphous sample (reference sample) was used as amorphous standard. The water uptake of a sample is proportional to the amount of amorphous content present in the sample.

The nature of series [4]: Determination of presence of aggregates / agglomerated material (Malvern). Format: physicochemical. As to conditions: after the curing step.
From the text: as §1

The mark [5] stands for this setting: after curing at 70° C., vacuum, 6 hours, FIG. 1: after storage at 25° C. for 1 month.

In the case of `C[N+]1(C)CC[C@@H](OC(=O)[C@@](O)(c2ccccc2)C2CCCC2)C1` (racemic) [Glycopyrronium bromide, (3RS)-3-[(2SR)-(2-cyclopentyl-2-hydroxy-2-phenylacetyl)oxy]-1,1-dimethylpyrrolidinium bromide], the ionization entry in series [1] is reported as “completely ionized”.

For “glycopyrronium bromide [Example 1, reference compound]”, in series [2] (setting [5]), the “D50 after the curing step (agglomerated material, FIG. 1)” value came out at 60.27 μm and the “D90 after the curing step (agglomerated material, FIG. 1)” value was 888.59 μm. For the same compound, in series [3], the “amorphous content as determined by DVS” value came to 1.8 wt. %. For the same compound, the agglomerated material observed entry in series [4] was “significant amount of agglomerated material”.

glycopyrronium bromide [Example 2]: in series [2], the “D50 determined by LDS after curing” value is on record as 1.45 μm and the “D90 determined by LDS after curing” value is on record as 3.39 μm. Moreover, in series [3], the “amorphous content as determined by DVS (in words)” value (“amorphous content … (in words)” below) was “No amorphous content was detected”. Besides, the agglomerated material observed result in series [4] is given as “no agglomerated material was observed”.

glycopyrronium bromide [Example 3]: in series [2], the “D50 determined by LDS after curing” value stood at 1.46 μm and the “D90 determined by LDS after curing” value worked out at 3.36 μm. Moreover, the “amorphous content … (in words)” value in series [3] is “No amorphous content was detected”. The agglomerated material observed result in series [4] is given as “no agglomerated material was observed”.

Turning to glycopyrronium bromide [Example 4], in series [2], the “D50 determined by LDS after curing” value is reported as 1.45 μm and the “D90 determined by LDS after curing” value was determined as 3.26 μm. Besides, the “amorphous content … (in words)” value in series [3] is given as “No amorphous content was detected”. Further, the agglomerated material observed entry in series [4] is “no agglomerated material was observed”.

Regarding glycopyrronium bromide [Example 5], in series [2], the “D50 determined by LDS after curing” value is 1.43 μm and the “D90 determined by LDS after curing” value was 3.28 μm. The “amorphous content … (in words)” value in series [3] was “No amorphous content was detected”. For the same compound, in series [4], the agglomerated material observed entry is recorded as “no agglomerated material was observed”.

For the compound glycopyrronium bromide [Example 6], in series [2], the “D50 determined by LDS after curing” value came out at 1.48 μm and the “D90 determined by LDS after curing” value is 3.11 μm. In series [3], the “amorphous content … (in words)” value is recorded as “No amorphous content was detected”. The agglomerated material observed entry in series [4] is on record as “no agglomerated material was observed”.
